According to patent US9684238B2, “Fluorene-type compound, photopolymerization initiator comprising said fluorene-type compound, and photosensitive composition containing said photopolymerization initiator” (TOKYO OHKA KOGYO CO., LTD., priority 2012, dated 2017):

Assays:
[1] = Evaluation 1: 20-μm pattern line width of transparent photosensitive composition; conditions: for 20-μm pattern line width: transparent composition, initiator 0.4 mmol; for sensitivity to the active energy ray (in words): photopolymerization initiator containing the compound
Experimental: After that, the mixture was filtered with a membrane filter having an aperture of 5 μm to provide a photosensitive composition.
It should be noted that the fluorene-based compound as a photopolymerization initiator was used in such an amount that its molar quantity was kept constant in the respective examples and comparative examples.
The glass substrate after the application was dried with a fan dryer at 90° C. for 10 minutes. Thus, a coating film (photosensitive layer) was formed. Next, the film was exposed to light having an exposure energy quantity of 5 mJ/cm^2, 10 mJ/cm^2, 20 mJ/cm^2, 40 mJ/cm^2, 60 mJ/cm^2, or 80 mJ/cm^2 by using a high-pressure mercury lamp (manufactured by Karl Suss, trade name: “MASK ALIGNER”) through a negative mask (mask width: 20 μm). Next, the resultant was immersed in a 0.1 wt % aqueous solution of tetramethylammonium hydroxide (TMAH) and then rinsed with pure water. The remaining cured film was subjected to the following evaluation.
(§1) A larger value for the line width means higher sensitivity.

[2] = Transmittance of transparent cured film; format: physicochemical; conditions: cured at exposure energy quantity 80 mJ/cm^2
Experimental: Transparent cured films were formed by using the photosensitive compositions obtained in Examples 1 to 9, Examples 2-1 to 2-10, and Comparative Examples 1 and 2 in the same manner as in the evaluation 1 except that the exposure energy quantity was set to 80 mJ/cm^2. The transmittance (%) of each of the resultant transparent cured films at 400 nm and the average transmittance (%) thereof in the range of from 400 to 700 nm were measured with a spectrophotometer (manufactured by Hitachi High-Technologies Corporation, trade name: “U-3900H”, quartz cell, optical path length; 1 cm). A higher transmittance at 400 nm means less coloring with a yellow color. In addition, a higher transmittance of a coating film means a higher transmitting property of a pattern to be formed.

[3] = Evaluation 3: 20-μm pattern line width of black photosensitive composition; conditions: black composition (carbon black, cardo resin), initiator 0.4 mmol
Description: The mixture was filtered with a membrane filter having an aperture of 5 μm to provide a photosensitive composition.
Photosensitive compositions were each obtained in the same manner as in Example 10 except that the used fluorene-based compound and its usage were changed as shown in Table 5.
Each of the photosensitive compositions obtained in Examples 10 to 15, Examples 2-11 to 2-20, and Comparative Example 3 was applied onto a glass substrate with a spin coater (manufactured by Kyowariken Co., Ltd., trade name: “K-359SD1”) so that its thickness after drying became 1.0 μm. The glass substrate after the application was dried with a fan dryer at 90° C. for 10 minutes. Thus, a coating film (photosensitive layer) was formed. Next, the film was exposed to light having an exposure energy quantity of 10 mJ/cm^2, 20 mJ/cm^2, 40 mJ/cm^2, 60 mJ/cm^2, or 80 mJ/cm^2 by using a high-pressure mercury lamp (manufactured by Karl Suss, trade name: “MASK ALIGNER”) through a negative mask (mask width: 20 μm). Next, the resultant was immersed in a 0.1 wt % aqueous solution of tetra methyl ammonium hydroxide (TMAH) and then rinsed with pure water. The remaining cured film was subjected to the following evaluation. In addition, FIGS. 2, 3, and 6 show microscope photographs of black cured films obtained by using the photosensitive compositions of Examples 10 and 11, and Comparative Example 3, and FIGS. 7 to 11 show microscope photographs of black cured films obtained by using the photosensitive compositions of Examples 2-11, 2-13, 2-14, 2-17, and 2-18.
as §1

[4] = Solubility in PGME, PGMEA and ethyl lactate; format: physicochemical; conditions: room temperature; for Solubility Ethyl lactate: in 100 parts by weight of ethyl lactate; for Solubility PGMEA: in 100 parts by weight of propylene glycol monomethyl ether acetate; for Solubility PGME: in 100 parts by weight of propylene glycol monomethyl ether
Experimental: An evaluation for solubility was performed in accordance with the following evaluation criteria based on the dissolution amount.
A: 10 Parts by weight or more of the photopolymerization initiator is dissolved.
B: An amount in the range of from 5 parts by weight or more to less than 10 parts by weight of the photopolymerization initiator is dissolved.
C: An amount in the range of from 2 parts by weight or more to less than 5 parts by weight of the photopolymerization initiator is dissolved.
D: Less than 2 parts by weight of the photopolymerization initiator is dissolved.

[5] = Average transmittance of composition; format: physicochemical; conditions: photosensitive composition, quartz cell, optical path length 1 cm
Experimental: The average transmittance (%) of each of the photosensitive resin compositions obtained in Examples 1 to 9, Examples 2-1 to 2-10, and Comparative Examples 1 and 2 in the range of from 400 nm to 700 nm was measured with a spectrophotometer (manufactured by Hitachi High-Technologies Corporation, trade name: “U-3900H”, quartz cell, optical path length; 1 cm).

[6] = Decomposition point by thermal analysis (TG-DTA); format: physicochemical; conditions: 5.0 mg
Experimental: The compounds 1, 2, 4, 6, 8, 9, 11, 12, 13, 15, 16, D-1, D-3, D-4, D-7, D-8, D-9, D-12, D-14, D-15, D-20, C-1, and C-2 were each subjected to measurement with a thermal analysis apparatus (TG-DTA) (manufactured by Rigaku Corporation, trade name: “Thermo Plus EVO TG 8120”) by using 5.0 mg thereof.

[7] = Absorption coefficient (absorbance of 0.001% solution in tetrahydrofuran); format: physicochemical; conditions: for Λ max (absorption maximum wavelength): 0.001% (wt/vol) in tetrahydrofuran, from 280 nm to 400 nm; for Absorption coefficient at 365 nm / Absorption coefficient at Λ max: 0.001% (wt/vol) solution in tetrahydrofuran
Experimental: A 0.001% (wt/vol) solution of each of the compounds 1, 2, 4, 6, 8, 9, 11, 12, 13, 15, 16, D-1, D-3, D-4, D-7, D-8, D-9, D-12, D-14, D-15, D-20, C-1, and C-2 in tetrahydrofuran was prepared, and its absorbance was measured with a spectrophotometer (manufactured by Hitachi High-Technologies Corporation, trade name: “U-3900H”). An absorption maximum wavelength (Amax) at a wavelength of from 280 nm to 400 nm was read from an absorption spectrum obtained with the spectrophotometer.

[8] = exposure energy quantity 5 mJ/cm^2
[9] = exposure energy quantity 10 mJ/cm^2
[10] = exposure energy quantity 20 mJ/cm^2
[11] = exposure energy quantity 40 mJ/cm^2
[12] = exposure energy quantity 80 mJ/cm^2
[13] = exposure energy quantity 60 mJ/cm^2

Structure (SMILES) | 20-μm pattern line width [1, 8] | 20-μm pattern line width [1, 9] | 20-μm pattern line width [1, 10] | 20-μm pattern line width [1, 11] | 20-μm pattern line width [1, 12] | Average transmittance (700 nm to 400 nm) Transparent cured film [2] | Transmittance (400 nm) Transparent cured film [2] | 20-μm pattern line width ([3]; 10 mJ/cm^2) | 20-μm pattern line width ([3]; 20 mJ/cm^2) | 20-μm pattern line width ([3]; 40 mJ/cm^2) | 20-μm pattern line width ([3]; 60 mJ/cm^2) | 20-μm pattern line width ([3]; 80 mJ/cm^2) | Solubility Ethyl lactate [4] | Solubility PGMEA [4] | Solubility PGME [4] | Average transmittance (700 nm to 400 nm) Solution [5] | Decomposition point [6] | Λ max (absorption maximum wavelength) [7] | Absorption coefficient at 365 nm [7] | Absorption coefficient at Λ max [7] | also measured
CCCC1(CCC)c2cc(C(=O)/C(C)=N/OC(C)=O)ccc2-c2ccc(C(=O)c3ccc([N+](=O)[O-])cc3)cc21 [Compound D-9] | 19.3 | 19.5 | 20.0 | 20.7 | 21.7 | 99.8% | 96.4% | 18.8 | 19.1 | 20.1 | 20.9 | 21.2 | C (An amount in the range of from 2 parts by weight or more to less than 5 parts by weight of the photopolymerization initiator is dissolved.) | C (An amount in the range of from 2 parts by weight or more to less than 5 parts by weight of the photopolymerization initiator is dissolved.) | D (Less than 2 parts by weight of the photopolymerization initiator is dissolved.) | 70.9% | 228.9 °C | 343.0 nm | 29.1 mL/mg/cm | 63.7 mL/mg/cm | –
CCn1c2ccc(C(=O)c3ccccc3C)cc2c2cc(/C(C)=N/OC(C)=O)ccc21 [Compound C-1, reference compound] | – | – | 20.4 | 22.1 | 22.4 | 99.8% | 98.9% | 18.5 | 19.0 | 20.0 | 20.9 | 21.2 | C (An amount in the range of from 2 parts by weight or more to less than 5 parts by weight of the photopolymerization initiator is dissolved.) | B (An amount in the range of from 5 parts by weight or more to less than 10 parts by weight of the photopolymerization initiator is dissolved.) | B (An amount in the range of from 5 parts by weight or more to less than 10 parts by weight of the photopolymerization initiator is dissolved.) | 94.2% | 216.4 °C | 298.5 nm | 4.4 mL/mg/cm | 94.4 mL/mg/cm | 20-μm pattern line width [1, 13]: 22.3
CCCC1(CCC)c2cc(C(=NOC(C)=O)c3ccccc3)ccc2-c2ccc([N+](=O)[O-])cc21 [Compound D-1] | – | 20.2 | 20.9 | 22.4 | 23.1 | 99.2% | 91.7% | 19.4 | 20.4 | 21.9 | 22.3 | 23.1 | D (Less than 2 parts by weight of the photopolymerization initiator is dissolved.) | C (An amount in the range of from 2 parts by weight or more to less than 5 parts by weight of the photopolymerization initiator is dissolved.) | D (Less than 2 parts by weight of the photopolymerization initiator is dissolved.) | 57.5% | 273.4 °C | 343.5 nm | 33.2 mL/mg/cm | 54.1 mL/mg/cm | sensitivity to the active energy ray (in words) [1]: additionally high sensitivity to the active energy ray; 20-μm pattern line width [1, 13]: 22.8
CCCC1(CCC)c2cc(C(C)=NOC(C)=O)ccc2-c2ccc([N+](=O)[O-])cc21 [Compound D-3] | 19.6 | 20.9 | 21.4 | 22.5 | 23.8 | 99.8% | 95.2% | 19.6 | 20.6 | 21.6 | 22.1 | 22.6 | D (Less than 2 parts by weight of the photopolymerization initiator is dissolved.) | C (An amount in the range of from 2 parts by weight or more to less than 5 parts by weight of the photopolymerization initiator is dissolved.) | D (Less than 2 parts by weight of the photopolymerization initiator is dissolved.) | 88.9% | 272.2 °C | 345.5 nm | 46.3 mL/mg/cm | 67.8 mL/mg/cm | sensitivity to the active energy ray (in words) [1]: additionally high sensitivity to the active energy ray
